The target of one assay is α-amylase. In words: α-amylase activity assay (colorimetric kit). It is filed as biochemical. Particulars: IC50 ± SD, n = 5; acarbose as standard drug. As to the method: (§1) All chemicals were supplied from Sigma-Aldrich (St. Louis, MO, USA). Melting points were determined via the Stuart SMP10 Digital Advanced MP apparatus (Cole-Parmer Ltd., Stone, UK) and are uncorrected. FTIR spectra were carried out on PerkinElmer (FTIR spectrometer, PerkinElmer Inc., Waltham, MA, USA), which mixed without using anhydrous KBr. The NMR spectra were recorded by JEOL RESONANCE spectrometer (Akishima, Japan) 500 MHZ by using DMSO-d6 as the solvent and chemical shifts (δ) and were recorded in parts per million (ppm) using tetramethyl silane (TMS) as the internal standard. The mass spectra were carried out on LC/MS spectroscopy (LCMS-8040 Shimadzu, Kyoto, Japan, model CAT-30A). Serial no. L20574900241 AE, 220–240 v~50/60 HZ 300 VA was used to record LCMS spectral data for samples. Elemental microanalysis was done on a Carlo Erba analyzer model 110 (Carlo Erba Instruments, Milan, Italy). Also used were α-amylase Assay Kit (Colorimetric) […] (Abcam, Cambridge, MA, USA), α-glucosidase Activity Assay Kit (Colorimetric) […] (Abcam, Cambridge, MA, USA), and Elisa: BioTek (Winooski, VT, USA) introduces Synergy Neo2 high performance Multi-Mode Microplate Reader.
The % inhibition was calculated as follows:% Inhibition = (Absorbancecontrol − Absorbancecompound) × 100/Absorbancecontrol

The target of a further assay is α-glucosidase. Briefly: α-glucosidase activity assay (colorimetric kit). As to conditions: IC50 ± SD, n = 5; acarbose as standard drug. The assay is classed as biochemical. The protocol: as §1
The α-glucosidase activity assay was conducted as we reported earlier. Samples (50 μL) were added to 96 wells, and the volume was adjusted to 100 μL/well with an assay buffer. For the reaction, 50 μL of reaction mix for each reaction were performed by adding assay buffer 47 μL and substrate mix 3 μL.

By IC50 is commonly meant the point on the concentration scale where inhibition reaches its midpoint. On to `COc1cc(NNC(=S)Nc2cccc(F)c2)nc(N)n1` [Compound 4, 2-(2-Amino-6-methoxypyrimidin-4-yl)-N-(3-fluorophenyl)hydrazine Carbothioamide], for which the IC50 is 11.1 ± 0.12 µM on α-amylase and 12.16 ± 0.12 µM at α-glucosidase.

Take `COc1cc(NNC(=S)Nc2cccc(Cl)c2)nc(N)n1` [Compound 6, 2-(2-Amino-6-methoxypyrimidin-4-yl)-N-(3-chlorophenyl) Hydrazine Carbothioamide]: the IC50 worked out at 15.17 ± 0.07 µM at α-amylase and 16.13 ± 0.11 µM on α-glucosidase.

For `COc1cc(NNC(=S)Nc2cccc(Br)c2)nc(N)n1` [Compound 9, 2-(2-Amino-6-methoxypyrimidin-4-yl)-N-(3-bromophenyl)-hydrazine Carbothioamide], the figures for the IC50 at α-amylase and at α-glucosidase were 18.16 ± 0.08 µM and 19.11 ± 0.11 µM, respectively.

Regarding `COc1cc(NNC(=S)Nc2cccc([N+](=O)[O-])c2)nc(N)n1` [Compound 11, 2-(2-Amino-6-methoxypyrimidin-4-yl)-N-(3-nitrophenyl)hydrazine Carbothioamide], the IC50 at α-amylase turned out to be 21.14 ± 0.12 µM; on α-glucosidase, 22.11 ± 0.13 µM.

For `COc1cccc(NC(=S)NNc2cc(OC)nc(N)n2)c1` [Compound 14, 2-(2-Amino-6-methoxypyrimidin-4-yl)-N-(3-methoxyphenyl)-hydrazine Carbothioamide], the IC50 at α-amylase came out at 33.18 ± 0.14 µM; on α-glucosidase, 30.12 ± 0.13 µM.

As for `COc1cc(NNC(=S)Nc2ccc(C)cc2)nc(N)n1` [Compound 16, 2-(2-Amino-6-methoxypyrimidin-4-yl)-N-(p-tolyl)hydrazine Carbothioamide], the results for the half-inhibitory concentration (IC50) at α-amylase and on α-glucosidase were 34.24 ± 0.16 µM and 36.14 ± 0.12 µM, respectively.

Take `COc1cc(NNC(=S)Nc2cccc(C#N)c2)nc(N)n1` [Compound 17, 2-(2-Amino-6-methoxypyrimidin-4-yl)-N-(3-cyanophenyl)hydrazine Carbothioamide]: the IC50 worked out at 40.16 ± 0.11 µM at α-amylase and 42.19 ± 0.13 µM at α-glucosidase.

The values are drawn from PMC12251307, “One-Pot Synthesis of Novel Pyrimidine Derivatives with Potential Antidiabetic Activity Through Dual α-Glucosidase and α-Amylase Inhibitors” (Molecules, 2025).
